Active and inactive are the calls of the source. The calls are words filed in the database; no cut-off is given here.
Columns and labels:
[1] = Inhibition of HCV NS5B deltaC RNA polymerase; parameters: species or system Hepacivirus hominis
[2] = Cytotoxicity against Huh7 cells; format: cell-based, Huh-7; conditions: human
[3] = system: Hepatitis C virus; assay: Antiviral activity against HCV in Huh7 cells assessed as inhibition of viral replication in presence of 10% fetal calf serum; format: functional, organism-based, Hepacivirus hominis; conditions: Huh-7
[4] = species: Homo sapiens; assay: Protein binding in human plasma assessed as free drug level; conditions: read-out: PPB
[5] = system: Hepatitis C virus; assay: Antiviral activity against HCV in Huh7 cells assessed as inhibition of viral replication in absence of serum; format: functional, organism-based, Hepacivirus hominis; conditions: Huh-7
[6] = Terminal phase half life in rat at 3 mg/kg, iv; format: ADME, organism-based; parameters: dose 3 mg/kg, route intravenous; conditions: in vivo
[7] = Plasma clearance in rat at 3 mg/kg, po or 3 mg/kg, iv; format: ADME, organism-based
[8] = AUC in rat at 3 mg/kg, po; format: ADME, organism-based; parameters: dose 3 mg/kg, route oral; conditions: plasma
[9] = Dissociation constant, pKa of the compound; format: physicochemical
[10] = Oral bioavailability in rat at 3 mg/kg; format: ADME, organism-based; conditions: in vivo

Row | IC50 [1] | EC50 [3] | fraction unbound [4] | Compound | also measured
1 | 26 nM | 1100 nM |  | CN(C)CC1CN(C(=O)Cn2c(-c3ccoc3)c(C3CCCCC3)c3ccc(-c4noc(=O)[nH]4)cc32)CCO1 (stereo unspecified) | 
2 | 640 nM |  | 0.001 | CN(C)C(=O)Cn1c(-c2ccccc2)c(C2CCCCC2)c2ccc(C(=O)N(C)S(=O)(=O)Cc3ccccc3)cc21 | Activity ([3]; Hepacivirus hominis): inactive
3 | 9 nM | 340 nM |  | CCN(CC)CC1CN(C(=O)Cn2c(-c3ccc(OC)cc3)c(C3CCCCC3)c3ccc(C(=O)NS(=O)(=O)CC)cc32)CCO1 (stereo unspecified) | CC50 [2]: 50000 nM
4 | 19 nM | 560 nM | 0.01 | CN(C)C(=O)Cn1c(-c2ccoc2)c(C2CCCCC2)c2ccc(C(=O)NS(=O)(=O)CC(=O)O)cc21 | 
5 | 31 nM | 5400 nM | 0.019 | CN(C)CCS(=O)(=O)NC(=O)c1ccc2c(C3CCCCC3)c(-c3ccccc3)n(CC(=O)N(C)C)c2c1 | EC50 [5]: 2000 nM
6 | 46 nM | 2100 nM |  | CCS(=O)(=O)NC(=O)c1ccc2c(C3CCCCC3)c(-c3ccccc3)n(CC(=O)N(C)C)c2c1 | half-life [6]: 2 h; clearance [7]: 51 mL/min/kg; AUC [8]: 1 µM·h; EC50 [5]: 520 nM
7 | 780 nM | 20000 nM |  | CN(C)C(=O)Cn1c(-c2cccnc2)c(C2CCCCC2)c2ccc(-c3noc(=O)[nH]3)cc21 | 
8 | 47 nM | 1100 nM | 0.021 | CN1CCCC(CN(C)C(=O)Cn2c(-c3ccccc3)c(C3CCCCC3)c3ccc(-c4noc(=O)[nH]4)cc32)C1 (stereo unspecified) | 
9 | 300 nM | 17000 nM |  | Cc1ccccc1-c1c(C2CCCCC2)c2ccc(-c3noc(=O)[nH]3)cc2n1CC(=O)N1CCC(N(C)C)CC1 | 
10 | 59 nM | 1300 nM |  | CN(C)C1CCN(C(=O)Cn2c(-c3ccccc3)c(C3CCCCC3)c3ccc(-c4noc(=O)[nH]4)cc32)CC1 | 
11 | 17 nM | 1900 nM |  | CN(C)C1CCN(C(=O)Cn2c(-c3ccc(Cl)cc3)c(C3CCCCC3)c3ccc(-c4noc(=O)[nH]4)cc32)CC1 | 

The next lines start with the compound.

Row | Compound | IC50 [1] | EC50 [3] | fraction unbound [4] | also measured
12 | CCN(CC)C1CCN(C(=O)Cn2c(-c3ccoc3)c(C3CCCCC3)c3ccc(C(=O)NS(=O)(=O)N(C)C)cc32)CC1 | 4 nM | 120 nM |  | CC50 [2]: 50000 nM
13 | CN(C)C(=O)Cn1c(-c2ccccc2)c(C2CCCCC2)c2ccc(C(=O)NS(=O)(=O)c3ccccc3)cc21 | 11 nM | 3900 nM | 0.003 | EC50 [5]: 130 nM
14 | CN(C)C(=O)Cn1c(-c2ccccc2)c(C2CCCCC2)c2ccc(C(=O)O)cc21 | 86 nM | 1500 nM |  | half-life [6]: 5 h; clearance [7]: 32 mL/min/kg; AUC [8]: 2 µM·h; pKa [9]: 4.8
15 | COc1cccc(-c2c(C3CCCCC3)c3ccc(-c4noc(=O)[nH]4)cc3n2CC(=O)N2CCC(N(C)C)CC2)c1 | 67 nM | 3700 nM |  | 
16 | CCS(=O)(=O)NC(=O)c1ccc2c(C3CCCCC3)c(-c3ccc(OC)cc3)n(CC(=O)N(C)C)c2c1 | 11 nM | 1500 nM |  | 
17 | CN(C)C(=O)Cn1c(-c2ccccc2)c(C2CCCCC2)c2ccc(C(=O)NS(=O)(=O)Cc3ccccc3)cc21 | 31 nM | 5000 nM | < 0.001 | EC50 [5]: 150 nM
18 | CCS(=O)(=O)NC(=O)c1ccc2c(C3CCCCC3)c(-c3ccoc3)n(CC(=O)N(C)C)c2c1 | 22 nM | 1500 nM | 0.008 | 
19 | CN(C)C(=O)Cn1c(-c2ccccc2)c(C2CCCCC2)c2ccc(C(=O)O)cc21.O=C(O)C(F)(F)F |  |  |  | bioavailability [10]: 45%
20 | CN(C)C(=O)Cn1c(-c2ccccc2)c(C2CCCCC2)c2ccc(C(=O)NS(=O)(=O)N(C)C)cc21 | 9 nM | 710 nM | 0.008 | 
21 | CN(C)C(=O)Cn1c(-c2ccccc2)c(C2CCCCC2)c2ccc(-c3noc(=O)[nH]3)cc21.O=C(O)C(F)(F)F |  |  |  | bioavailability [10]: 20%
22 | CN(C)C(=O)Cn1c(-c2ccoc2)c(C2CCCCC2)c2ccc(C(=O)NS(=O)(=O)N(C)C)cc21 | 14 nM | 380 nM | 0.011 | 
23 | CN(C)C(=O)Cn1c(-c2ccccc2)c(C2CCCCC2)c2ccc(C(=O)NS(=O)(=O)CC(=O)O)cc21 | 29 nM | 1600 nM |  | 
24 | CN1CCC(N(C)C(=O)Cn2c(-c3ccccc3)c(C3CCCCC3)c3ccc(-c4noc(=O)[nH]4)cc32)C1 (stereo unspecified) | 75 nM | 1600 nM |  | 
25 | CN(C)C1CCN(C(=O)Cn2c(-c3cnn(C)c3)c(C3CCCCC3)c3ccc(-c4noc(=O)[nH]4)cc32)CC1 | 170 nM | > 50000 nM | 0.094 | 
26 | CCS(=O)(=O)NC(=O)c1ccc2c(C3CCCCC3)c(-c3ccccc3)n(CC(=O)N(C)C)c2c1.O=C(O)C(F)(F)F |  |  |  | bioavailability [10]: 24%
27 | CN(C)C(=O)Cn1c(-c2ccccc2)c(C2CCCCC2)c2ccc(-c3noc(=O)[nH]3)cc21 | 68 nM | 4400 nM | 0.001 | half-life [6]: 13 h; clearance [7]: 12 mL/min/kg; AUC [8]: 2 µM·h; pKa [9]: 4.8
28 | CN(C)C1CCN(C(=O)Cn2c(-c3ccccc3F)c(C3CCCCC3)c3ccc(-c4noc(=O)[nH]4)cc32)CC1 | 53 nM | 2400 nM |  | 
